Like-named read-outs stand apart in the source and are kept apart here.
What was measured:
Experiment in all cases: Kinase profile (33P ATP filter binding)
Format in all cases: biochemical
[1] = molecular target: RSK1 (Homo sapiens, UniProt Q15418); conditions: read-out: Remaining protein kinase activity
[2] = molecular target: PLK1 (Homo sapiens, UniProt P53350); conditions: read-out: Remaining protein kinase activity
[3] = molecular target: IRAK1 (Homo sapiens, UniProt P51617); conditions: read-out: Remaining protein kinase activity
[4] = molecular target: T1, EPH-B2 (Homo sapiens, UniProt P29323)
T1 sequence (P29323 19-1055): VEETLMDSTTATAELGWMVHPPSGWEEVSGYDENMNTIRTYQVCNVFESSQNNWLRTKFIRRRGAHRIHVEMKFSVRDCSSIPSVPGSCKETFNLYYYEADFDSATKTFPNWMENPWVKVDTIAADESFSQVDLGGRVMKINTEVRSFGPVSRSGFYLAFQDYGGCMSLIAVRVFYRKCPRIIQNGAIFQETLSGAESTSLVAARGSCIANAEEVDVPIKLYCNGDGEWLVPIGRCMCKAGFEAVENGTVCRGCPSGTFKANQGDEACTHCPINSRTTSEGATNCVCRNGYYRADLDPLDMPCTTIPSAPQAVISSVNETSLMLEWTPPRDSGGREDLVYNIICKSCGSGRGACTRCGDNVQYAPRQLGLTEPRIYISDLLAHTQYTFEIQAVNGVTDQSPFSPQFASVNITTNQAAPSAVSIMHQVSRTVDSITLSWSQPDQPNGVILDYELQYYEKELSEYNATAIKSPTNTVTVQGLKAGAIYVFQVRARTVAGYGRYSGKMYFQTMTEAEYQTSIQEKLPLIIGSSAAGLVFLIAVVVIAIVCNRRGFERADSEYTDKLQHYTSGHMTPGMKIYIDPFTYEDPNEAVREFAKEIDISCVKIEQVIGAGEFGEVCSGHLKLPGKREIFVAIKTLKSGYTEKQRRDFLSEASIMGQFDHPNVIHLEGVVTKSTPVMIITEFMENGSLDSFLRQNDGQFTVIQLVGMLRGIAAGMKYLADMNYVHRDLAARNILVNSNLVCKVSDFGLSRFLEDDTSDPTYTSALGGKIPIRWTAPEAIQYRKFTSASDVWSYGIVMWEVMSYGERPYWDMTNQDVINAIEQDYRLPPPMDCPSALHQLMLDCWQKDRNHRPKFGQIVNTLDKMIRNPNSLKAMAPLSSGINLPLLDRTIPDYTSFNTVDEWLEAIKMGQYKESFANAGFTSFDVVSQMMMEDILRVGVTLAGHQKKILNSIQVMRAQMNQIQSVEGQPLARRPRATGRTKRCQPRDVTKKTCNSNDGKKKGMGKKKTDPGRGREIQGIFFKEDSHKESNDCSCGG

[5] = molecular target: MST3 (Homo sapiens, UniProt Q9Y6E0)
[6] = molecular target: T2, TBK1 (Homo sapiens, UniProt Q9UHD2); conditions: read-out: Remaining protein kinase activity
T2 sequence (Q9UHD2 1-729): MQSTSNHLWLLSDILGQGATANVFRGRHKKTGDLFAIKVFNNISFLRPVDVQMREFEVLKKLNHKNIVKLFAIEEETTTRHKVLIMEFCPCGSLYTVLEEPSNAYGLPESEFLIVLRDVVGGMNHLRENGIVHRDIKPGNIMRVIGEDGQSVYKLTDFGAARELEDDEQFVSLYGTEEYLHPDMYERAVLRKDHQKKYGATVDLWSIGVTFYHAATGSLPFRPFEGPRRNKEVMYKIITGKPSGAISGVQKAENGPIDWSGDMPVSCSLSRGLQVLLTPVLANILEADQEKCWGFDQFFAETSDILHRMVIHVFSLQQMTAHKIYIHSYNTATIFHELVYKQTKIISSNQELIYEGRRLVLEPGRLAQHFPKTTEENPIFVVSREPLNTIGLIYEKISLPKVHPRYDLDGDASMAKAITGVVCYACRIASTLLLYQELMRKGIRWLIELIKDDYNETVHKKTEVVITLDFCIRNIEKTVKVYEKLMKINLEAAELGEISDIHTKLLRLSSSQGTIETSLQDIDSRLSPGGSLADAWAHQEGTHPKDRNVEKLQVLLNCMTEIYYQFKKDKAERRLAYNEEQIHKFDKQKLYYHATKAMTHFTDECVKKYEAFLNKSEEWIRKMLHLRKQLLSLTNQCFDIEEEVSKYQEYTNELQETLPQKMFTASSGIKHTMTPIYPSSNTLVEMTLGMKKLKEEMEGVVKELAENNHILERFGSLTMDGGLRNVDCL

[7] = molecular target: MAPKAP-K3 (Homo sapiens, UniProt Q16644); conditions: read-out: Remaining protein kinase activity
[8] = molecular target: ERK5 (Homo sapiens, UniProt Q13164); conditions: read-out: Remaining protein kinase activity
[9] = molecular target: SRPK1 (Homo sapiens, UniProt Q96SB4); conditions: read-out: Remaining protein kinase activity
SRPK1, sequence (Q96SB4 whole entry): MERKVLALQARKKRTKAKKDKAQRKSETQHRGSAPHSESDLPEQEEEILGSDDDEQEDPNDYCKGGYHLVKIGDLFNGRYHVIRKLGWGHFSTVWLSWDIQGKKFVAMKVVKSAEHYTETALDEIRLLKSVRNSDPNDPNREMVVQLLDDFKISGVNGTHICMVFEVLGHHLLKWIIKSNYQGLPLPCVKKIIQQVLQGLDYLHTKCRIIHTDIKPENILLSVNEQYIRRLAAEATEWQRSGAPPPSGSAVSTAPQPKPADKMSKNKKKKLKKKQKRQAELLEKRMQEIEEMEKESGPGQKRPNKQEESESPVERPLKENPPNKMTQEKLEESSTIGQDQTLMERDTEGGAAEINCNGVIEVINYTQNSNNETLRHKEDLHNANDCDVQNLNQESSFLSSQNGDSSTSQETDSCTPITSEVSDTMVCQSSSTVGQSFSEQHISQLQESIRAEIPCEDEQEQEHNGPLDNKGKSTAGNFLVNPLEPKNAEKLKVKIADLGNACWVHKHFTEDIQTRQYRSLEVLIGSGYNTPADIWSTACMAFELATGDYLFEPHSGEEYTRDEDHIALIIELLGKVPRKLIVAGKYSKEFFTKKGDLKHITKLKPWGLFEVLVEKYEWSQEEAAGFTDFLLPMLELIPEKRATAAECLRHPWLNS

PLK1, sequence (P53350 whole entry): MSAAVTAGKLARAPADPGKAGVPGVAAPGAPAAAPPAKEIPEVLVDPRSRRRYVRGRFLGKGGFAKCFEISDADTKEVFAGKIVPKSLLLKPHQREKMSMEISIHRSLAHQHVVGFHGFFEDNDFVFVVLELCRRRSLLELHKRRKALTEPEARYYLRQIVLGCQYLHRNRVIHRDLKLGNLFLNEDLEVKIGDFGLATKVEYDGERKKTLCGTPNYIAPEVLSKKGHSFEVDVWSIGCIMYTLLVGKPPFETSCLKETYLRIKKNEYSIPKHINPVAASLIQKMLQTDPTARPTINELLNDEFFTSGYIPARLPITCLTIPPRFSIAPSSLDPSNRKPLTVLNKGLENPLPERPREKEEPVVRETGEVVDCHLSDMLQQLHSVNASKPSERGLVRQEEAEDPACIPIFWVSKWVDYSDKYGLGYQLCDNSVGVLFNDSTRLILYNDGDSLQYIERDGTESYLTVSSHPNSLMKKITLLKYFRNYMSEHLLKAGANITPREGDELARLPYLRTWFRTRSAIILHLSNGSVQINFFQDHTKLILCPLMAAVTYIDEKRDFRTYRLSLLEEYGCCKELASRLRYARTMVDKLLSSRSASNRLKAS
ERK5, sequence (Q13164 whole entry, species assumed): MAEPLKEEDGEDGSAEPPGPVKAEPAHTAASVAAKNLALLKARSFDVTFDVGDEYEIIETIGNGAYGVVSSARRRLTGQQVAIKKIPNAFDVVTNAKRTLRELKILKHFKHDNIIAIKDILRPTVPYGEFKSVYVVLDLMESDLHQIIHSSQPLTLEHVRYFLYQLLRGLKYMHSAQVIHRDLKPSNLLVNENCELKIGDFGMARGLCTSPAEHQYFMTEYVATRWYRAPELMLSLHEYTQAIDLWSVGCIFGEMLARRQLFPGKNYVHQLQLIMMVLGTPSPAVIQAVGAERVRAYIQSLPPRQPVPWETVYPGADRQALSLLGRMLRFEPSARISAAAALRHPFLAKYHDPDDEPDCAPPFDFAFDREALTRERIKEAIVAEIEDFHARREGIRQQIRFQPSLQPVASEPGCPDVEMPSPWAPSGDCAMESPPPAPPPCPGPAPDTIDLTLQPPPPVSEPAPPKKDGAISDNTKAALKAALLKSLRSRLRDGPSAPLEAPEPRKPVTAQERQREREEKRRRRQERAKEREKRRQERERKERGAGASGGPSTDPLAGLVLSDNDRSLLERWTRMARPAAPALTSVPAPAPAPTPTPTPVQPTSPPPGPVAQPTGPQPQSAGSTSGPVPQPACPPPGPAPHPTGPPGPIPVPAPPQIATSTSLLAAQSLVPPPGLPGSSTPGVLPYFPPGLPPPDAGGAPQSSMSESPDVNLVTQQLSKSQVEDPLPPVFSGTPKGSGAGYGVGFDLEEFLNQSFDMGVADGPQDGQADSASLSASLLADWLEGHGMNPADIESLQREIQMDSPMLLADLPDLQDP
RSK1, sequence (Q15418 whole entry, species assumed): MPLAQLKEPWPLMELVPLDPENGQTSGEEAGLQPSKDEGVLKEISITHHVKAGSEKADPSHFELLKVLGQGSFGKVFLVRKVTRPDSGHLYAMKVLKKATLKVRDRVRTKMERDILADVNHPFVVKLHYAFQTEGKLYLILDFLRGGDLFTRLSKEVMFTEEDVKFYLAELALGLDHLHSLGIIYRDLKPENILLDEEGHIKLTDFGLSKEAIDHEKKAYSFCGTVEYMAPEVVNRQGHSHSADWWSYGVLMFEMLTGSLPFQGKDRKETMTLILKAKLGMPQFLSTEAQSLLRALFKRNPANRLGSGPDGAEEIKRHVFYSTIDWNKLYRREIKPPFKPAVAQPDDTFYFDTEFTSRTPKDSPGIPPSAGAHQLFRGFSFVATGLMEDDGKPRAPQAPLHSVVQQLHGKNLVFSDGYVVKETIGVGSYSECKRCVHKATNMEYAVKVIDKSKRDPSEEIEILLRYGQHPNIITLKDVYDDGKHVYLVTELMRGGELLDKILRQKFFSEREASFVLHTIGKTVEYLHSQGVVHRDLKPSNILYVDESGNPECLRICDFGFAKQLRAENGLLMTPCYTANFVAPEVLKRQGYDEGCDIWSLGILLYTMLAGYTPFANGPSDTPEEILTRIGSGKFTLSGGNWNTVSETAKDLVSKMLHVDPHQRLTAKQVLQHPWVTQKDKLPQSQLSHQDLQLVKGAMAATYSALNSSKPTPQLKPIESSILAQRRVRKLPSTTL
MAPKAP-K3, sequence (Q16644 whole entry): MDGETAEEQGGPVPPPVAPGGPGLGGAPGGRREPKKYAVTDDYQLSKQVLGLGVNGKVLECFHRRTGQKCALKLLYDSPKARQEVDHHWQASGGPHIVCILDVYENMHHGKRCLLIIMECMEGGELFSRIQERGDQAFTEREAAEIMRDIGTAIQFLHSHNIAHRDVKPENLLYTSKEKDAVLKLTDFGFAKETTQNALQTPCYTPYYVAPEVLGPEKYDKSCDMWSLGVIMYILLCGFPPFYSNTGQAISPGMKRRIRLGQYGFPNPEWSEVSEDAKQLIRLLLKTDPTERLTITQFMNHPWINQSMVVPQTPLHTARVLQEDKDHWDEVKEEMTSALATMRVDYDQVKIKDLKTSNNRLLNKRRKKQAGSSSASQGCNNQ
MST3, sequence (Q9Y6E0 whole entry): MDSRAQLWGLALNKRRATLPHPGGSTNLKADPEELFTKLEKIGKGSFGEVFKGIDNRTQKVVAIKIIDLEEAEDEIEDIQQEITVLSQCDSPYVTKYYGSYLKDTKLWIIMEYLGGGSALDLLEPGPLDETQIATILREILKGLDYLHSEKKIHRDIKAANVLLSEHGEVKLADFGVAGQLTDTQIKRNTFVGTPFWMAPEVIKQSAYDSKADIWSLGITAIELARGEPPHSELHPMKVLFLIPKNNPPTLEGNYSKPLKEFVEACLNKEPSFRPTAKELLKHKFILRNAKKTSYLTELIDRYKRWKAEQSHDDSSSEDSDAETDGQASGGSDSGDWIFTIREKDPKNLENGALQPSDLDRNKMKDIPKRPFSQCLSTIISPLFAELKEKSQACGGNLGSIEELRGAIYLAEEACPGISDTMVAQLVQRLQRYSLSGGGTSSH
IRAK1, sequence (P51617 whole entry): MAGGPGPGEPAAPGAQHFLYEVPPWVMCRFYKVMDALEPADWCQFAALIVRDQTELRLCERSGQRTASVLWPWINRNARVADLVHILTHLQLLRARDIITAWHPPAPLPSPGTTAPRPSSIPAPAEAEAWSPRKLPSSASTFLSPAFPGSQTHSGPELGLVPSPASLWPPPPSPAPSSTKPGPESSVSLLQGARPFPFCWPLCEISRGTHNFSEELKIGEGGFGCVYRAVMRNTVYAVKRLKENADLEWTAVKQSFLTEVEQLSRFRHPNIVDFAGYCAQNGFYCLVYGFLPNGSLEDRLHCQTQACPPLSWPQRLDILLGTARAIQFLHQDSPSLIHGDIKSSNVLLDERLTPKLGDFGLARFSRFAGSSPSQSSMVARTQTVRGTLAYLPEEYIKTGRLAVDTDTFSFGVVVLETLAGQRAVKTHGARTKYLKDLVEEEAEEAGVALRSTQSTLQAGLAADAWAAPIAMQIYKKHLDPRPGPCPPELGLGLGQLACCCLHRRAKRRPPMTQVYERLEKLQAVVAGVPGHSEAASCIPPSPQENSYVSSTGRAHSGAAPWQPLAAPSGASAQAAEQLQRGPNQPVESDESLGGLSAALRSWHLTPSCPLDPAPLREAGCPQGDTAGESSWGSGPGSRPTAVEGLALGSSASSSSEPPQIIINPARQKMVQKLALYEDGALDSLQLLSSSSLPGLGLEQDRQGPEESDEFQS

`COc1ccc2sc(-c3cncc(NC(C)=O)c3)nc2c1` [PST-001, N-(5-(5-Methoxybenzo[d]thiazol-2-yl)pyridin-3-yl)acetamide] gave a remaining activity at 1 µM [1] of 99%, a remaining activity at 100 µM [1] of 88% and a remaining activity at 1 µM [2] of 112%. It also gave a remaining activity at 100 µM [2] of 115%, a remaining activity at 1 µM [3] of 103% and a remaining activity at 100 µM [3] of 93%. The “Remaining protein kinase activity” value ([4]; 1 μM) was 137%, the “Remaining protein kinase activity” value ([4]; 100 μM) was 125% and the “Remaining protein kinase activity” value ([5]; 1 μM) was 118%. The “Remaining protein kinase activity” value ([5]; 100 μM) was 113%, the remaining activity at 1 µM [6] was 119% and the remaining activity at 100 µM [6] was 104%. For the same compound, the remaining activity at 1 µM [7] was 115%, the remaining activity at 100 µM [7] was 113% and the remaining activity at 1 µM [8] was 72%. It also gave a remaining activity at 100 µM [8] of 51%, a remaining activity at 1 µM [9] of 115% and a remaining activity at 100 µM [9] of 108%.

For `COc1ccc2sc(-c3cncc(N)c3)nc2c1` [compound 1, 5-(5-Methoxybenzo[d]thiazol-2-yl)pyridin-3-amine], the remaining activity at 1 µM ([1]; RSK1, 1 μM) was 99%, the remaining activity at 100 µM ([1]; RSK1, 100 μM) was 42% and the remaining activity at 1 µM ([2]; PLK1, 1 μM) was 99%. The remaining activity at 100 µM ([2]; PLK1, 100 μM) was 73%, the remaining activity at 1 µM ([3]; IRAK1, 1 μM) was 95% and the remaining activity at 100 µM ([3]; IRAK1, 100 μM) was 24%. The “Remaining protein kinase activity” value ([4]; 1 μM) was 136%, the “Remaining protein kinase activity” value ([4]; 100 μM) was 96% and the “Remaining protein kinase activity” value ([5]; 1 μM) was 114%. The “Remaining protein kinase activity” value ([5]; 100 μM) was 96%, the remaining activity at 1 µM ([6]; TBK1, 1 μM) was 105% and the remaining activity at 100 µM ([6]; TBK1, 100 μM) was 60%. The remaining activity at 1 µM ([7]; MAPKAP-K3, 1 μM) was 115%, the remaining activity at 100 µM ([7]; MAPKAP-K3, 100 μM) was 74% and the remaining activity at 1 µM ([8]; ERK5, 1 μM) was 66%. The remaining activity at 100 µM ([8]; ERK5, 100 μM) was 37%, the remaining activity at 1 µM ([9]; SRPK1, 1 μM) was 108% and the remaining activity at 100 µM ([9]; SRPK1, 100 μM) was 55%.
